Source: patent US11458138B2 (Novartis AG, priority 2017, dated 2022)

Key:
[1] = tested on: Phospho-YAP (SER127) in HaCaT cells; assay: pYAP HTRF Assay (HaCaT Cells); format: cell-based, human; conditions: Homo sapiens, 2 hours
How it was run: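 HaCaT cells at 5500 cells/well were cultured 48 hours at 37° C, then treated with compound for 2 hours. Phospho-YAP (Ser127) was detected by HTRF after an overnight (20 hrs) room-temperature incubation, read as the 665 nm/620 nm ratio.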

[2] = tested on: human corneal endothelial cells (CECs); assay: Human corneal endothelial cell population expansion, cell confluence (Incucyte); format: cell-based; conditions: 10 micromolar, 10 days
Description: Cells obtained as described in Example C1 were detached from the culture dish with 100 microlitres of Accutase (ThermoFisher) for 10 minutes at 37° C., cell suspensions were rinsed by centrifugation and plated in corneal endothelial cell culture medium (human endothelial SF medium (Invitrogen) with human serum) in 6-well plates (Corning) supplemented with LATS inhibitor compound example no. […] Cells were cultured at 37° C. in 5% CO2.
To measure cell proliferation, an Incucyte machine was used following the manufacturer's instructions (Essen Biosciences) to perform real-time quantitative live-cell analysis of cell confluence every 3 hours for 10 days.

[3] = tested on: phospho-YAP (ser127) in human LSCs; assay: YAP phosphorylation by western blot in LSCs; format: cell-based; conditions: 10 micromolar, 1 hour
Description: Cells obtained as described in Example B1 were detached from the culture dish with Accutase for 10 minutes at 37° C., cell suspensions were rinsed by centrifugation and plated in DMEM F12 supplemented with 10% human serum and 1.3 mM calcium chloride in 6-well plates (Corning) and cultured without LATS inhibitor compounds for 2-4 days.
The medium was then replaced by fresh limbal epithelium cell culture medium (DMEM F12 supplemented with 10% human serum and 1.3 mM calcium chloride) supplemented with LATS inhibitor compound example no. […] Cells were cultured under these conditions for 1 hour at 37° C. in 5% CO2.
To measure the effect of the LATS inhibitors on the downstream target YAP, the YAP phosphorylation levels were measured by western blot as follows. The cell pellets were obtained by trypsin dissociation and centrifugation and washed with PBS. The pellets were lysed with 30 microlitres of RIPA lysis buffer containing protease inhibitor cocktail (Life Technologies) for 30 minutes, with vortexing every 10 minutes. The cell debris were then pelleted at 4° C. for 15 minutes at 14 k rpm and the protein lysate was collected. Protein concentration was quantified using a micro BCA kit (Pierce). Fifteen micrograms of total protein was loaded in each well of 4-20% TGX gels (BioRad) and Western blotting was performed according to the manufacturer's instructions. […]

limbal stem cells (LSCs) = assay: Immunolabelling of LSC markers DeltaN-p63 alpha/beta/gamma, ABCG2, C/EBP delta; format: cell-based, human; conditions: vs cells cultured in DMSO
Source text: In contrast, cells cultured in the presence of LATS inhibitors express markers such as DeltaN-p63 alpha/beta/gamma, ABCG2 and C/EBP delta, normally expressed by LSCs.
(3) The cells express one or more of ABCB5, ABCG2, and C/EBPδ. The expression of ABCB5, ABCG2, and C/EBPδ may be estimated by standard techniques known in the art, such as for example immunohistochemistry and quantitative RT-PCR.

[4] = biological target: Human LATS1 kinase domain protein (Homo sapiens (Human), UniProt O95835); assay: LATS1 Biochemical Caliper Assay; conditions: 400 micromolar ATP
Description: Human LATS1 kinase domain protein was purchased from Carnabio (catalogue number 01-123), which harbors the catalytic domain of amino acids 589-1130, and was co-purified with human His-tagged MOBKL1A (NP_775-739). 5 microlitre of enzyme buffer, 100 nL of compounds and 5 microlitre of localising aid buffer were added into 384-well plates. The final assay reaction mix contains 100 mM HEPES, pH7.5, 0.1% BSA, 0.01% Triton X-100, 1 mM DTT, 10 mM MgCl2, 10 micromolar Sodium Orthovanadate, 10 micromolar Beta-Glycerophosphate, 400 micromolar ATP, 1% DMSO, 1.1 nM LATS1 enzyme (Carnabio, 01-123), 1 micromolar localising aid of FAM-[…]-COOH (SEQ ID NO: 24) (NanoSyn). The plates were incubated at 25° C. for 3 hours. 40 microlitre of stop buffer with 25 mM EDTA (NanoSyn) was added to each well to terminate the reaction. Localising aids and products were separated electrophoretically using the microfluidic-based Caliper Labchip 3000 Drug Discovery System (Caliper Life Sciences). Plates were read using blue laser excitation and green fluorescence detection and quantified by fluorescence intensity. […] According to this assay the LATS1 IC50 values in micromolar for the following compounds are: […]

[5] = tested on: human limbal stem cells (LSCs); assay: Human limbal stem cell population expansion, immunohistochemical observation of p63alpha; format: cell-based; conditions: for LSC colony formation and p63alpha expression: 10 micromolar, 6 days without passaging
Description: Cells obtained as described in Example B1 were plated in 24-well plates (Corning) in limbal epithelium cell culture medium (DMEM F12 supplemented with 10% human serum and 1.3 mM calcium chloride) supplemented with LATS inhibitor compound example no. […] Cells were first cultured at 37° C. in 5% CO2 for 6 days after isolation without passaging (FIGS. 2A, 2B and 2C).
To evaluate the ability of the compounds to enable LSC expansion after two passages, LSCs were passaged and cultured for two weeks in the presence of compound example 49 to enable expansion (FIG. 2D). Limbal stem cells (LSCs) were passaged by treating cultures with Accutase for 10 minutes at 37° C., rinsing the cell suspension by centrifugation and plating cells in fresh LSC culture medium supplemented with LATS inhibitor compound example 49.
In order to observe that the expanded cell population expressed p63alpha, this was measured by immunohistochemistry as follows. Cell cultures were fixed with 4% PFA for 20 minutes, permeabilized and blocked in a blocking solution of 0.3% Triton X-100 (Sigma-Aldrich) and 3% donkey serum in PBS for 30 minutes. Cells were then labeled with primary antibody in the blocking solution for 12 hours at 4° C. Primary antibody used was p63alpha from Cell Signalling. Samples were washed in PBS three times and donkey-raised secondary antibody Alexa Fluor 488 (Molecular Probes) at 1:500 dilution were applied for 30 minutes at room temperature. Cells were counter-stained with a human nuclear antigen antibody (Millipore) at a 1:500 dilution in order to label all cells in the culture and confirm their human identity. […] Fluorescence was observed using a Zeiss LSM 880 confocal microscope.

Human LATS1 kinase domain protein, sequence (O95835 whole entry, looked up, the tested form may be a part): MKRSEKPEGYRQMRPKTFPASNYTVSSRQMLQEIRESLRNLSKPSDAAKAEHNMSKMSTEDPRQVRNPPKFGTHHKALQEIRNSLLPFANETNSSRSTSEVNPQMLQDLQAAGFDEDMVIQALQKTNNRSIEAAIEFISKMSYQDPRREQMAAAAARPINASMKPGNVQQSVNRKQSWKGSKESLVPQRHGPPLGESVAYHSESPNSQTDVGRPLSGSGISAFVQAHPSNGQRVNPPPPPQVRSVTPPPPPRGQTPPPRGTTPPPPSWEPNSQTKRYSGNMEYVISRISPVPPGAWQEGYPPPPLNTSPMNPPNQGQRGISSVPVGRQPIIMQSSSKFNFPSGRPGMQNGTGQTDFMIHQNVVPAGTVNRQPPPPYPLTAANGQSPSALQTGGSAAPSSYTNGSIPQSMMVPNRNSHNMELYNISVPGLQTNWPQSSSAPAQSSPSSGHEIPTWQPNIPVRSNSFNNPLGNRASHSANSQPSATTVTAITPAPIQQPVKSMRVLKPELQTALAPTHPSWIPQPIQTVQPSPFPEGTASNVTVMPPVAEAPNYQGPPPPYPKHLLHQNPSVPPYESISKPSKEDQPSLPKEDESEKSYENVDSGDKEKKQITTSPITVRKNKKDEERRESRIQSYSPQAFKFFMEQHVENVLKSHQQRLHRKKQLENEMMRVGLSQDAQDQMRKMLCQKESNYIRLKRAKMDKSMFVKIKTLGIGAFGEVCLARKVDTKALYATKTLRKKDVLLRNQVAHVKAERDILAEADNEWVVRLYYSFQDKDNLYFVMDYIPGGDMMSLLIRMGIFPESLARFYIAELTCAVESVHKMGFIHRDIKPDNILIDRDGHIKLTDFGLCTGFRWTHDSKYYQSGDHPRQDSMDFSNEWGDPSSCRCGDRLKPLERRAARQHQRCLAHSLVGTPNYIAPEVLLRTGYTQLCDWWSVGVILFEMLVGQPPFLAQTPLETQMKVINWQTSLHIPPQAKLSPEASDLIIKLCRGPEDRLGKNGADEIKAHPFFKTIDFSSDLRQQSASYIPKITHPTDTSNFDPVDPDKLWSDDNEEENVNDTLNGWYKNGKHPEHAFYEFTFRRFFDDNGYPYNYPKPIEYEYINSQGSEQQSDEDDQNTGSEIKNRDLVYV
Human LATS1 kinase domain protein, sequence (Q7L9L4 whole entry partner, looked up, the tested form may be a part): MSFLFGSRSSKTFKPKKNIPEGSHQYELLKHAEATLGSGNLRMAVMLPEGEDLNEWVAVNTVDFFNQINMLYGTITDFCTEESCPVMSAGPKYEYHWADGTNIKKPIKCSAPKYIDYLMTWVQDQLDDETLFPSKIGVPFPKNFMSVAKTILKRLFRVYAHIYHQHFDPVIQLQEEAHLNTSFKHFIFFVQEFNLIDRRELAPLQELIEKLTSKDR

Structure (SMILES) | IC50 [1] | Proliferation of human CECs (percentage confluence over time) [2] | YAP phosphorylation levels in human LSCs (western blot) [3] | expression of LSC markers DeltaN-p63 alpha/beta/gamma, ABCG2 and C/EBP delta (limbal stem cells (LSCs)) | IC50 [4] | LSC colony formation and p63alpha expression [5] | LSC population expansion after passaging ([5]; passaged and cultured two weeks)
CC(C)(C)Nc1cc(-c2ccncc2)nc2cnccc12 [Example 261, N-(tert-butyl)-2-(pyridin-4-yl)-1,7-naphthyridin-4-amine] | 202 nM |  |  |  |  |  | 
Cc1n[nH]cc1-c1nc(NC2(C)CC2)c2ccncc2n1 [Example 133, 2-(3-methyl-1H-pyrazol-4-yl)-N-(1-methylcyclopropyl)pyrido[3,4-d]pyrimidin-4-amine] | 414 nM | could activate proliferation in these cells | reduction in YAP phosphorylation levels | express typical markers of LSCs | 4 nM | the cells formed colonies and expressed p63alpha | 
CCCNc1nc(-c2ccncc2)nc2cnccc12 [Example 14, N-propyl-2-(pyridin-4-yl)pyrido[3,4-d]pyrimidin-4-amine] | 7310 nM |  |  |  | 34 nM |  | 
CC(C)(O)CC(C)(C)Nc1nc(-c2ccncc2)nc2cnccc12 [Example 49, 2,4-dimethyl-4-{[2-(pyridin-4-yl)pyrido[3,4-d]pyrimidin-4-yl]amino}pentan-2-ol] | 607 nM | could activate proliferation in these cells | reduction in YAP phosphorylation levels | express typical markers of LSCs | 12 nM | the cells formed colonies and expressed p63alpha | enabled cell population expansion and the formation of confluent cultures expressing p63alpha
c1cc(-c2nc(NC3CCCC3)c3ccncc3n2)ccn1 [Example 65, N-cyclopentyl-2-(pyridin-4-yl)pyrido[3,4-d]pyrimidin-4-amine] | 895 nM |  |  |  | 22 nM |  | 
